Assay results published in ChEMBL document CHEMBL6153034, “Synthesis of dolutegravir derivatives modified by 1,2,3-triazole structure and their anti-inflammatory activity in LPS-induced BV2 cells” (Bioorg Med Chem Lett, 2025).
Activity calls are given as the source filed them. The rule behind the calls is not given here.

Legend:
BV-2 [1] = experiment: Antiinflammatory activity in LPS-induced mouse BV-2 cells assessed as downregulation of iNOS mRNA expression level at 5 to 10 uM preincubated for 2 hrs followed by LPS addition and measured after 6 hrs by qRT-PCR analysis; format: functional, cell-based; conditions: dose 5-10 µM, time 8.0 hrs
[2] = Acute toxicity in female Kunming mouse assessed as effect on organ coefficient of liver at 250 mg/kg administered via gavage; format: organism-based; conditions: in vivo, po
[3] = Acute toxicity in female Kunming mouse assessed as effect on organ coefficient of heart at 250 mg/kg administered via gavage; format: organism-based; conditions: in vivo, po
BV-2 [4] = experiment: Antiinflammatory activity in LPS-induced mouse BV-2 cells assessed as downregulation of COX-2 protein expression level preincubated for 2 hrs followed by LPS addition and measured after 24 hrs by Western blot analysis; format: functional, cell-based; conditions: dose 5-10 µM, time 26.0 hrs
[5] = Acute toxicity in female Kunming mouse assessed as histopathological changes in kidney at 250 mg/kg administered via gavage by H and E staining based analysis; format: organism-based; conditions: in vivo, po
[6] = Cytotoxicity against mouse BV-2 cells assessed as cell viability at 10 uM by MTT assay relative to control; format: toxicity, cell-based; conditions: read-out: Activity
[7] = Acute toxicity in female Kunming mouse assessed as effect on organ coefficient of kidney at 250 mg/kg administered via gavage; format: organism-based; conditions: in vivo, po
[8] = Acute toxicity in female Kunming mouse assessed as histopathological changes in liver at 250 mg/kg administered via gavage by H and E staining based analysis; format: organism-based; conditions: in vivo, po
BV-2 [9] = experiment: Antiinflammatory activity in LPS induced mouse BV-2 cells assessed as downregulation of IL-6 mRNA expression level preincubated for 2 hrs followed by LPS addition and measured after 24 hrs by qRT-PCR analysis; format: functional, cell-based; conditions: dose 5-10 µM, time 26.0 hrs
[10] = Acute toxicity in male Kunming mouse assessed as histopathological changes in spleen at 250 mg/kg administered via gavage by H and E staining based analysis; format: organism-based; conditions: in vivo, po
[11] = Acute toxicity in male Kunming mouse assessed as increase in GPT level in blood at 250 mg/kg administered via gavage by biochemical analysis; format: organism-based; conditions: in vivo, po
[12] = Acute toxicity in male Kunming mouse assessed as effect on organ coefficient of spleen at 250 mg/kg administered via gavage; format: organism-based; conditions: in vivo, po
[13] = Acute toxicity in male Kunming mouse assessed as histopathological changes in liver at 250 mg/kg administered via gavage by H and E staining based analysis; format: organism-based; conditions: in vivo, po
[14] = Acute toxicity in female Kunming mouse assessed as effect on organ coefficient of spleen at 250 mg/kg administered via gavage; format: organism-based; conditions: in vivo, po
[15] = Acute toxicity in male Kunming mouse assessed as histopathological changes in kidney at 250 mg/kg administered via gavage by H and E staining based analysis; format: organism-based; conditions: in vivo, po
BV-2 [16] = experiment: Inhibition of LPS-induced nuclear translocation of p-STAT3 in mouse BV-2 cells at 10 uM preincubated for 2 hrs followed LPS addition and measured after 3 hrs by Western blot analysis; format: functional, cell-based; conditions: time 5.0 hrs
[17] = Acute toxicity in male Kunming mouse assessed as effect on organ coefficient of heart at 250 mg/kg administered via gavage; format: organism-based; conditions: in vivo, po
[18] = target: Signal transducer and activator of transcription 3 (Mus musculus) (UniProt P42227); experiment: Inhibition of STAT3 phosphorylation at Tyr705 residue in LPS-induced mouse BV-2 cells at 5 to 10 uM preincubated for 2 hrs followed by LPS addition and measured after 3 hrs by Western blot analysis; format: cell-based; conditions: dose 5-10 µM, time 5.0 hrs
Sequence of Signal transducer and activator of transcription 3 (Mus musculus) (P42227 whole entry): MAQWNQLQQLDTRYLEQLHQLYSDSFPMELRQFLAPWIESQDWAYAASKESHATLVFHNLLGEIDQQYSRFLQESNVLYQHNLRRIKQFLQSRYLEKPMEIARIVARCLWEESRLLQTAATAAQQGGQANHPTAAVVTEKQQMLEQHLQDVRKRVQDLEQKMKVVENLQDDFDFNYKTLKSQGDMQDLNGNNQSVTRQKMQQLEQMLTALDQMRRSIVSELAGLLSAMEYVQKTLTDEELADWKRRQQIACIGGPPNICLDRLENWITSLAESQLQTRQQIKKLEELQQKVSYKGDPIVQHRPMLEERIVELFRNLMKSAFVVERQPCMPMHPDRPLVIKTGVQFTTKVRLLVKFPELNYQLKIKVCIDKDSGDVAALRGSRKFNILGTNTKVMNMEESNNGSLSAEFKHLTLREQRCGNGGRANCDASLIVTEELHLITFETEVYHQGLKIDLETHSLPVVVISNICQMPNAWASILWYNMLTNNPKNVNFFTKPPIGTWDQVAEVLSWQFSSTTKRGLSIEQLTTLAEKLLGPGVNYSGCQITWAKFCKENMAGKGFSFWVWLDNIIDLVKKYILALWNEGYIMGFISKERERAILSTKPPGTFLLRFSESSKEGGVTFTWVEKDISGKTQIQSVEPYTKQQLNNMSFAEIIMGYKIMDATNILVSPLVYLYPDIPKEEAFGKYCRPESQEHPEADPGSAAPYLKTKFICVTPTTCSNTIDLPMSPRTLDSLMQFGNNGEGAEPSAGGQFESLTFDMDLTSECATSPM

With COc1c2n(cc(C(=O)Nc3cccc(-c4cn(-c5ccccc5Cl)nn4)c3)c1=O)C[C@@H]1OCC[C@@H](C)N1C2=O the Activity (BV-2 [1]) was “Active”, the Activity [2] was “Non-toxic” and the Activity [3] was “Non-toxic”. For the same molecule, the Activity (BV-2 [4]) was “Dose-dependent-effect”, the Activity [5] was “Non-toxic” and the viability at 10 µM [6] was 86.7%. The Activity [7] was “Non-toxic”, the Activity [8] was “Non-toxic” and the Activity (BV-2 [9]) was “Dose-dependent-effect”. The Activity [10] was “Non-toxic”, the Activity [11] was “Toxic” and the Activity [12] was “Non-toxic”. The Activity [13] was “Non-toxic”, the Activity [14] was “Non-toxic” and the Activity [15] was “Non-toxic”. The inhibition (BV-2 [16]) was “Active”, the Activity [17] was “Non-toxic” and the inhibition [18] was “Active”.
